EP0001503A1, “Antithrombotic compositions containing benzisothiazolones” (BEECHAM GROUP PLC, priority 1977, dated 1979)
Where a name gives a salt, the structure may show the parent alone. Marks after values point to notes of the source that are not given here.

Key:
[1] = tested on: platelet aggregation (collagen); assay: Inhibition of collagen-induced platelet aggregation, guinea pig ex vivo (turbidimetric, PRP); type: in vivo; settings: p.o.
Method: (§1) These compounds were tested for inhibition of platelet aggregation alone and in combination with certain anti-inflammatory agents, in the guinea pig ex vivo by the following method: • Ten male guinea pigs weighing 250-300 g were orally dosed 1% methyl cellulose (5 ml/kg) in which the compound under test was suspended. Ten control animals were given methyl cellulose alone. […] Platelet-rich- plasma (PRP) was prepared from each blood sample by centrifigation at 450 g to 5 min. The platelet concentration in each sample or PRP was adjusted with auto- logous platelet-poor-plasma to give a count of […] PRP. Aggregation was measured turbido- metrically (G.V.R. Born, 1962, Nature, 194, 927-929) at 39° using a Bryston aggregometer coupled to a penrecorder. The concentration of callogen producing approximately 50% maximal aggregation and the concentration of ADP producing first-phase aggregation were compared in PRP samples from control and drug treated animals.
(§2) In the tables the dose ratio represents the ratio of the concentration of aggregating agent to cause aggregation in PRP from drug-treated animals to the concentration of aggregating agent to cause aggregation in PRP from control animals.

[2] = tested on: platelet aggregation (ADP); assay: Inhibition of ADP-induced platelet aggregation, guinea pig ex vivo (turbidimetric, PRP); type: in vivo; settings: p.o.
Method: as §1, §2

[3] = Table 6, 2 h, mmol(mg)/kg: Aspirin 0.15 (27), Compound D 0.15 (59), Compound D Aspirinate Salt 0.15 (88)
[4] = Table 6, ADP 0.5µM, 2 h, mmol(mg)/kg: Aspirin 0.15 (27), Compound D 0.15 (59), Compound D Aspirinate Salt 0.15 (88)
[5] = Table 5, 2 h, mmol(mg)/kg: Aspirin 0.15 (27), Compound D 0.08 (31), combination 0.08 (31)+0.15 (27)
[6] = Table 5, ADP 0.5µM, 2 h, mmol(mg)/kg: Aspirin 0.15 (27), Compound D 0.08 (31), combination 0.08 (31)+0.15 (27)
[7] = Table 1, PRP 2 h after dosing, mmol(mg)/kg: Aspirin 0.15 (27), Compound A 0.08 (20), combination 0.15 (27)+0.08 (20)
[8] = Table 2, 2 h, mmol(mg)/kg: Aspirin 0.15 (27), Compound B 0.08 (22), combination 0.15 (27)+0.08 (22)
[9] = Table 4, 2 h, mmol(mg)/kg: Aspirin 0.15 (27), Compound C 0.6 (217), combination 0.15 (27)+0.6 (217)
[10] = Table 1, ADP 0.5μM, 2 h, mmol(mg)/kg: Aspirin 0.15 (27), Compound A 0.08 (20), combination 0.15 (27)+0.08 (20)
[11] = Table 1, 2 h, mmol(mg)/kg: Aspirin 0.15 (27), Compound A 0.08 (20), combination 0.15 (27)+0.08 (20)
[12] = Table 2, ADP 0.5μM, 2 h, mmol(mg)/kg: Aspirin 0.15 (27), Compound B 0.08 (22), combination 0.15 (27)+0.08 (22)
[13] = Table 4, ADP 0.5μM, 2 h, mmol(mg)/kg: Aspirin 0.15 (27), Compound C 0.6 (217), combination 0.15 (27)+0.6 (217)
[14] = Table 3, 2 h, mmol(mg)/kg: Indomethacin 0.003 (1), Compound B 0.08 (22), combination 0.003 (1)+0.08 (22)
[15] = Table 3, ADP 0.5µM, 2 h, mmol(mg)/kg: Indomethacin 0.003 (1), Compound B 0.08 (22), combination 0.003 (1)+0.08 (22)

SMILES: COc1cc2sn(CCCCN3CC4CCC(CC4)C3)c(=O)c2cc1OC [Compound D Aspirinate Salt, Aspirin salt of 2-(4-(3-azabicyclo[3.2.2.]non-3-yl)butyl)-5,6-dimethoxy-1,2-benzisothiazol-3-one]
- Dose-ratio vs. Coll. [1, 3]: >57*
- % Inhibition of ADP (0.5µM) [2, 4]: 91* %
- Dose-ratio vs. ADP [2, 3]: 4.6*

SMILES: COc1cc2sn(CCCCN3CC4CCC(CC4)C3)c(=O)c2cc1OC [Compound D, 2-[4-(3-azabicyclo[3.2.2]non-3-yl)butyl]-5,6-dimethoxy-1,2-benzisothiazol-3-one]
- Dose-ratio vs. Coll. [1, 5]: 5.4*
- Dose-ratio vs. Coll. [1, 3]: >15.4*
- % Inhibition of ADP (0.5µM) [2, 6]: 86* %
- Dose-ratio vs. ADP [2, 5]: 2.6*
- % Inhibition of ADP (0.5µM) [2, 4]: 61* %
- Dose-ratio vs. ADP [2, 3]: 3.2*

SMILES: CC(=O)Oc1ccccc1C(=O)O [Aspirin, aspirin, reference compound]
- Dose-ratio vs. Coll. [1, 7]: 2.2*
- Dose-ratio vs. Coll. [1, 8]: 2.2*
- Dose-ratio vs. Coll. [1, 9]: 2.2*
- Dose-ratio vs. Coll. [1, 5]: 2.2*
- Dose-ratio vs. Coll. [1, 3]: 2.2*
- % Inhibition of ADP (0.5µM) [2, 10]: 16%
- % Inhibition of ADP 1μM [2, 11]: 0%
- Dose-ratio vs. ADP [2, 7]: 1.3
- % Inhibition of ADP (0.5µM) [2, 12]: 0%
- Dose-ratio vs. ADP [2, 8]: 1.3
- % Inhibition of ADP (0.5µM) [2, 13]: 0%
- Dose-ratio vs. ADP [2, 9]: 1.3
- % Inhibition of ADP (0.5µM) [2, 6]: 0%
- Dose-ratio vs. ADP [2, 5]: 1.3
- % Inhibition of ADP (0.5µM) [2, 4]: 0%
- Dose-ratio vs. ADP [2, 3]: 1.3

SMILES: O=c1c2ccccc2sn1CCCN1CCCCC1 [Compound B, 2-[3-(1-piperidyl)propyl]-1,2-benzisothiazol-3-one]
- Dose-ratio vs. Coll. [1, 8]: 9.0*
- Dose-ratio vs. Coll. [1, 14]: 9.0*
- % Inhibition of ADP (0.5µM) [2, 12]: 57* %
- Dose-ratio vs. ADP [2, 8]: 1.7*
- % Inhibition of ADP (0.5µM) [2, 15]: 57* %
- Dose-ratio vs. ADP [2, 14]: 1.7*

SMILES: COc1cc2sn(CCN3CC4CCC(CC4)C3)c(=O)c2cc1OC [Compound C, 2-[2-(3-azabicyclo[3.2.2]non-3-yl)ethyl)-5,6-dimethoxy-1,2-benzisothiazol-3-one]
- Dose-ratio vs. Coll. [1, 9]: >13.9*
- % Inhibition of ADP (0.5µM) [2, 13]: 92* %
- Dose-ratio vs. ADP [2, 9]: 3.3*

SMILES: O=c1c2ccccc2sn1CCN1CCCCC1 [Compound A, 2-[2-(1-piperidyl)ethyl] 1,2-benzisothiazol-3-one]
- Dose-ratio vs. Coll. [1, 7]: 8.3*
- % Inhibition of ADP (0.5µM) [2, 10]: 26%
- % Inhibition of ADP 1μM [2, 11]: 0%
- Dose-ratio vs. ADP [2, 7]: 1.4*

SMILES: COc1ccc2c(c1)c(CC(=O)O)c(C)n2C(=O)c1ccc(Cl)cc1 [Indo-methacin, Indomethacin, reference compound]
- Dose-ratio vs. Coll. [1, 14]: 1.7*
- % Inhibition of ADP (0.5µM) [2, 15]: 0%
- Dose-ratio vs. ADP [2, 14]: 1.1
